Results published in article PMC11609934, “Exploration and characterization of the antimalarial activity of cyclopropyl carboxamides that target the mitochondrial protein, cytochrome b” (European Journal of Medicinal Chemistry, 2024).
pEC50: −log10 of the molar value. Values after ≈ are worked out from the molar mass of the structure shown.

What was measured:
[1] = system: P. berghei ANKA parasites; assay: P. berghei 4-day mouse model; assay type: in vivo, Plasmodium berghei; settings: for % parasitemia / % reduction in parasitemia: mice, day 4, oral gavage q.d. x4, 50 mg/kg (ART 30 mg/kg); for % reduction in parasitemia: versus vehicle control
Description: The 4-day P. berghei mouse model is used to determine the preliminary in vivo efficacy of antimalarials at an early stage of optimization. To determine if cyclopropyl carboxamide series could reduce asexual blood stage infection, we evaluated representative compounds WJM280 (108) and analog 109 in the 4-day P. berghei mouse model. In this model, mice were infected P. berghei asexual stage parasites, and then 2 h after the infection, WJM280 (108) and analog 109 at 50 mg/kg and artesunate at 30 mg/kg were administered by oral gavage. The same compound doses were administered again, 24, 48, and 72 h post infection. Parasitemia was then quantified by preparing blood smears and visualizing by microscopy across days 2, 3, and 4. […] The inability of these compounds to reduce parasitemia was attributed to their high metabolic turnover, which is a characteristic that needs improving on further development of the cyclopropyl carboxamide class.
P. berghei 4-day Mouse Model. This model was conducted as previously described.

[2] = system: P. falciparum 3D7 parasites; assay: P. falciparum 3D7 asexual stage LDH assay (72 h); assay type: cell-based, Plasmodium falciparum; settings: Plasmodium falciparum, 3D7, 72 h, LDH activity of P. falciparum 3D7 parasites over 72 h; means and SDs, three or more experiments; read-out: Pf 3D7 EC50 (SD)
Description: To establish the SAR, synthesized analogs were assessed against the asexual stage parasite (72 h) using LDH as a proxy for parasite growth inhibition. Cytotoxicity was monitored against the human HepG2 cell line using Cell TitreGlo as a metabolic marker for cell growth.
P. falciparum 3D7 Asexual Stage LDH Assay. This is a platform assay is routinely undertaken at the Walter and Eliza Hall Institute and details on the protocol has been previously published. Briefly, 10-point dilution series of the compounds were prepared in 384 well assay plates using an Echo555 (Labcyte). Appropriate volumes of 10 mM compound stocks were transferred into the assay plates such that the starting concentration was 1 μM, with a 1 in 3-fold dilution series. All wells were backfilled with DMSO to 40 nL such that this remained constant (0.1 % DMSO). The positive growth control was 0.1 % DMSO and the negative growth control was 100 nM chloroquine. The parasite inoculum (40 μL) was dispensed into plates containing compounds using a Multidrop Combi dispenser (Thermo Scientific). […] Following 72 h growth, plates were sealed with parafilm and frozen at −80 °C overnight. Plates were thawed at room temperature for at least 4 h prior to LDH activity being measured. […] Plates were shaken to ensure mixing and absorbance at 650 nm was measured in an EnVision (PerkinElmer) plate reader after 30 min of incubation at room temperature. […] The equation used is sigmoidal dose response (variable slope), Y = bottom + (top − bottom)/(1 + 10((logEC50 − X) × Hill Slope)).

[3] = Human HepG2 growth inhibition assay (Cell TitreGlo, 48 h); assay type: cell-based; settings: human, HepG2 cells, HepG2 cell growth inhibition over 48 h
Description: To establish the SAR, synthesized analogs were assessed against the asexual stage parasite (72 h) using LDH as a proxy for parasite growth inhibition. Cytotoxicity was monitored against the human HepG2 cell line using Cell TitreGlo as a metabolic marker for cell growth. Cyt b inhibitors typically have high lipophilicity, and so calculated physicochemical properties were determined, while in vitro ADME was also collected on representative analogs to gauge their suitability for efficacy studies in a 4-day P. berghei model.
Human HepG2 Growth Inhibition Assay. This is a routine assay undertaken at the Walter and Eliza Hall Institute and the method has been previously published. HepG2 cells were cultured in Dulbeccos modified eagles medium (DMEM) supplemented with 10 % fetal calf serum (FCS), in a humidified incubator at 37 °C and 5 % CO2. Assay plates (Greiner #781098, 384 well, white, tissue culture treated) were prepared by transferring appropriate volumes of 10 mM compound stocks using an Echo555 (Labcyte) such that the starting concentration was 50 μM, with a 1:2-fold dilution series. All wells were backfilled with DMSO to […] such that this remained constant (0.5 % DMSO). The positive growth control was 0.5 % DMSO and the negative growth control was 10 μM Bortezomib. HepG2 cells were seeded with 1000 cells in 50 μL DMEM with 10 % FCS into each well of the assay plates using a Multidrop Combi dispenser (Thermo Scientific). Plates were incubated at 37 °C and 5 % CO2 for 48 h. Cytotoxicity was determined using Cell Titer Glo (Promega) and calculated as a percentage using DMSO as the positive growth control and 10 μM Bortezomib as a negative growth control. EC50 values were calculated by Dotmatics 5.3 and Spotfire 7.11.1 software using a nonlinear regression four-parameter fit analysis. The equation used is sigmoidal dose response (variable slope), Y = bottom + (top − bottom)/(1 + 10((logEC50 − X) × Hill Slope)).

[4] = Aqueous solubility (kinetic in PBS, pH 7.4); assay type: physicochemical; settings: phosphate buffered saline
Description: Solubility. The solubility assay was performed using a miniaturized shake flask method. A solution of phosphate buffered saline (PBS) and the test compound (200 μM) was incubated at 25 °C with constant shaking (600 rpm) for 2 h. The samples were filtered using a multiscreen solubility filter plate. The filtrate was half diluted in acetonitrile. A five-point linearity curve was prepared in PBS:acetonitrile (1:1, v/v) at 200, 150, 75, 25 and 2.5 μM. Blank, linearity and test samples (n = 2) were transferred to a UV readable plate and the plate was scanned for absorbance. Best fit calibration curves were constructed using the calibration standards and used to determine the test sample solubility. The experiment was carried out in duplicate. Diethylstilbestrol, haloperidol, and diclofenac sodium were used as reference standards.

[5] = Human liver microsome stability; assay type: in vitro ADME; settings: pooled human liver microsomes
Description: Human Liver Microsome Stability. A solution of the test compounds in phosphate buffer solution (1 μM) was incubated in pooled human liver microsomes (0.5 mg/mL) for 0, 5, 20, 30, 45 and 60 min at 37 °C in the presence and absence of NADPH regeneration system. The reaction was terminated with the addition of ice-cold acetonitrile containing system suitability standard at designated time points. […] The experiment was carried out in duplicate. Verapamil, diltiazem, phenacetin, and imipramine were used as reference standards.

Rat hepatocyte stability = assay type: in vitro ADME; settings: pooled rat hepatocytes
Description: Rat Hepatocyte Stability. A solution of the test compound in Krebs-Henseliet buffer solution (1 μM) was incubated in pooled rat hepatocytes (1 × 10^6 cells/mL) for 0, 15,30,45, 60, 75 and 90 min at 37 °C (5 % CO2, 95 % relative humidity). The reaction was terminated with the addition of ice-cold acetonitrile containing system suitability standard at designated time points. […] The experiment was carried out in duplicate. Diltiazem, 7-ethoxy coumarin, propranolol, and midazolam were used as reference standards.

[6] = eLogD (shake-flask, pH 7.4); assay type: physicochemical; settings: 1-octanol/phosphate buffered saline (1:1, v/v), Shake-flask method
Description: eLogD. The LogD (pH 7.4) assay was performed using a miniaturized shake flask method. A solution of a pre-saturated mixture of 1-octanol and phosphate buffered saline (PBS) (1:1, v/v) and the test compound (75 μM) was incubated at 25 °C with constant shaking (850 rpm) for 2 h. After incubation the organic and aqueous phases were separated, and samples of each phase transferred to plate for dilution. The organic phase was diluted to 1000-fold and the aqueous phase was diluted 20-fold. The samples were quantitated using LC-MS/MS. The experiment was carried out in duplicate. Propranolol, amitriptyline, and midazolam were used as reference standards.

male gamete = assay: Dual gamete formation assay, male gametes; assay type: cell-based; settings: Plasmodium falciparum; NF54 parasites in a DGFA, 4 replicates
Description: (§1) To determine whether the cyclopropyl carboxamide class has transmission blocking potential we profiled selected analogs in a dual gamete formation assay. In this assay, stage V gametocytes are treated with compound, and gametogenesis is induced by the addition of xanthurenic acid. Male gamete viability is determined by an imaging algorithm measuring motile flagellation, while female viability is measured using an antibody to the female-specific Pfs25 surface marker. […] Collectively, the activity observed against male gametes is consistent with activity observed with other cyt b inhibitors.
(§2) Dual Gamete Formation Assay. Compounds were evaluated as previously described as a platform run at both Imperial College London and the London School of Hygiene and Tropical Medicine. Briefly, mature stage V gametocytes were exposed to compounds for 48 h at 37 °C in 384 well plates in gametocyte culture medium (RPMI 1640 supplemented with 25 mM HEPES, 50 μg/mL hypoxanthine, 4.8 g/L NaHCO3, 2 mM L-glutamine, 5 % pooled type AB serum, 0.5 % Albumax II (Gibco)) under a 1 % O2/3 % CO2/96 % N2 environment. Gametogenesis was then triggered by the addition of 10 μL ookinete medium (gametocyte culture medium supplemented with 100 μM xanthurenic acid and 0.27 μg/mL Cy3-labelled anti-Pfs25 antibody) to each well at room temperature. Plates were then cooled on a metal block at 4 °C for 4 min to ensure even cooling and then stabilized for a further 4 min at 28 °C. At 20 min post-induction, male gametogenesis was recorded in each well by automated brightfield microscopy using a × 4 objective lens and 1.5 × magnifier ( × 6 effective magnification). Afterward, plates were incubated in the dark at room temperature for 24 h and then female gametogenesis recorded in each well by automated fluorescence microscopy (anti-Pfs25-positive cells). […] All data was evaluated in comparison to the positive and negative controls to calculate percentage inhibition of male and female gametocytes, and dose response analysis and EC50 calculation performed using GraphPad Prism.

female gamete = assay: Dual gamete formation assay, female gametes; assay type: cell-based; settings: Plasmodium falciparum; NF54 parasites in a DGFA, 4 replicates
Description: as §1, §2

SMILES	% parasitemia [1]	% reduction in parasitemia [1]	pEC50 [2]	CC50 at 48 h [3]	solubility at 2 h [4]	microsomal CLint at 1 h, 1 µM [5]	hepatocyte CLint at 1 μM (Rat hepatocyte stability)	logD at 2 h [6]	hepatocyte CLint at 1.5 h, 1 µM (Rat hepatocyte stability)	body weights of mice ([1]; 50 mg/kg q.d. oral, 4 days)	pEC50 (male gamete)	pEC50 (female gamete)
C[C@H]1[C@H](OC(=O)CCC(=O)O)O[C@@H]2O[C@@]3(C)CC[C@H]4[C@H](C)CC[C@@H]1[C@@]24OO3 [ART, artesunate, reference compound]	2.3%	97.7%	–	–	–	–	–	–	–	–	–	–
O=C(NC1CC1)c1ccc(CN(Cc2ccccc2)C2CC2)cc1 [Compound 17, 4-((Benzyl(cyclopropyl)amino)methyl)-N-cyclopropylbenzamide]	–	–	6.85	> 40000 nM	44 µM (≈ 14.1 µg/mL)	72 µL/min/mg	> 92 µL/min/1e6 cells	4	–	–	–	–
CC(C)N(Cc1ccccc1)Cc1ccc(C(=O)NC2CC2)cc1 [Compound 21, 4-((Benzyl(isopropyl)amino)methyl)-N-cyclopropylbenzamide]	–	–	6.80	> 40000 nM	140 µM (≈ 45.1 µg/mL)	76 µL/min/mg	> 92 µL/min/1e6 cells	3.5	–	–	–	–
O=C(NC1CC1)c1ccc(CN(Cc2ccccc2)C2CCC2)cc1 [Compound 22, 4-((Benzyl(cyclobutyl)amino)methyl)-N-cyclopropylbenzamide]	–	–	6.80	> 40000 nM	92 µM (≈ 30.8 µg/mL)	151 µL/min/mg	> 92 µL/min/1e6 cells	3.8	–	–	–	–
O=C(NC1CC1)c1ccc(CN(Cc2ccccc2)CC(F)(F)F)cc1 [Compound 25, 4-((Benzyl(2,2,2-trifluoroethyl)amino)methyl)-N-cyclopropylbenzamide]	–	–	6.59	> 40000 nM	11 µM (≈ 3.99 µg/mL)	79 µL/min/mg	> 92 µL/min/1e6 cells	4.8	–	–	–	–
CCCN(Cc1ccccc1)Cc1ccc(C(=O)NC2CC2)cc1 [Compound 26, 4-((Benzyl(propyl)amino)methyl)-N-cyclopropylbenzamide]	–	–	6.89	> 40000 nM	83 µM (≈ 26.8 µg/mL)	98 µL/min/mg	> 92 µL/min/1e6 cells	3.7	–	–	–	–
CC(c1ccccc1)N(Cc1ccc(C(=O)NC2CC2)cc1)C1CC1 (stereo not shown) [Compound 97, N-Cyclopropyl-4-((cyclopropyl(1-phenylethyl)amino)methyl)benzamide]	–	–	6.77	> 40000 nM	22 µM (≈ 7.36 µg/mL)	238 µL/min/mg	> 92 µL/min/1e6 cells	4.2	–	–	–	–
O=C(NC1CC1)c1ccc(CN(Cc2ccccc2)C2CC2)nc1 [Compound 104, 6-((Benzyl(cyclopropyl)amino)methyl)-N-cyclopropylnicotinamide]	–	–	5.46	> 40000 nM	–	–	–	–	–	–	–	–
O=C(NC1CC1)c1cnc(CN(Cc2ccccc2)C2CC2)s1 [Compound 105, 2-((Benzyl(cyclopropyl)amino)methyl)-N-cyclopropylthiazole-5-carboxamide]	–	–	5.62	> 40000 nM	–	–	–	–	–	–	–	–
CCCN(Cc1ccc(C(=O)NC2CC2)cc1)Cc1cc(C(F)(F)F)cc(C(F)(F)F)c1 [Compound 109, 4-(((3,5-Bis(trifluoromethyl)benzyl) (propyl)amino)methyl)-N-cyclopropylbenzamide]	91%	9%	7.52	10000 nM	2.5 µM (≈ 1.15 µg/mL)	65 µL/min/mg	–	5	60 µL/min/1e6 cells	slightly reduced	–	–
CCCN(Cc1ccc(C(=O)NC2CC2)cc1)Cc1c(C)cc(C)cc1C [Compound 110, N-Cyclopropyl-4-((propyl(2,4,6-trimethylbenzyl)amino)methyl)benzamide]	–	–	7.10	> 40000 nM	–	–	–	–	–	–	6.55	< 4.60
